Patent US20150299614A1, “IMPROVEMENTS IN OR RELATING TO ORGANIC COMPOUNDS” (Givaudan, S.A., priority 2012, published 2015)
Values belong to the compound of their own block, whether it stands above or below them.

Legend:
[1] = Odour perception threshold; settings: in air
[2] = Colour stability in fine fragrance (ethanol solution, indoor daylight); format: physicochemical; settings: 1 and 0.5% wt/wt in 96% EtOH, glass vials, visual inspection
Description: A solution of the test compound (compound of formula (I) specified in the Table below) was prepared in perfumery grade ethanol (96% EtOH, 4% water) at 1 and 0.5% wt/wt. The solutions were placed in 2.5 ml transparent glass vials closed with plastic lids. The vials were placed behind a window exposed to indoor daylight. The colour of the solutions was inspected visually over a 1 month period.

[3] = Colour stability in colourless consumer base; format: physicochemical; settings: dosed in a colourless consumer base at 0.02%, storage 4 weeks at 45 ° C.
Description: By the term “colour stable” is meant that when dosed in a colourless consumer base at 0.02% and held under storage for 4 weeks at 45 ° C., bases containing the compounds of formula (I) remain colourless upon visual inspection. On the other hand, bases containing iso-eugenol and iso-eugenol “[…]” such as vanillin at the same concentration were discoloured, variously appearing to have yellowish, orange, […] or brown hues.

[4] = system: KeratinoSens™ cell line (Luciferase gene under the control of the ARE-element of the gene AKR1C2); experiment: KeratinoSens assay for skin sensitization (luciferase gene induction); format: cell-based; settings: for luciferase gene induction relative to the 1.5-fold threshold: 48 h incubation, 0.98 to 2000 μM, FIG. 1; for skin sensitization rating by the KeratinoSens assay: positive if EC1.5 below 1000 μM, viability above 70%, dose-response
Description: The KeratinoSens™ cell line contains a stable insertion of a Luciferase gene under the control of the ARE-element of the gene AKR1C2. The optimization of this cell line and the standard method to test chemicals has been described in detail in Emter et. al. 2010 (Emter R., Ellis G., Natsch A., 2010 “Performance of a novel keratinocyte-based reporter cell line to screen skin sensitizers in vitro. Toxicol Appl Pharmacol 245, 281-290). Cells were grown for 24 h in 96-well plates. The medium was then replaced with medium containing the test chemical and the solvent Dimethylsulfoxide (DMSO) at a final level of 1%. Each compound was tested at 12 binary dilutions in the range from 0.98 to 2000 μM. In each repetition, three parallel replicate plates were run with this same set-up and a fourth parallel plate was prepared for cytotoxicity determination using an MTT assay. Cells were incubated for 48 h with the test agents, and then luciferase activity and cytotoxicity were determined. This full procedure was repeated at least three times for each chemical. For each chemical in each repetition and at each concentration, the gene induction compared to DMSO controls and the wells with statistically significant induction over the threshold of 1.5 (i.e. 50% enhanced gene activity) were determined. Furthermore the maximal fold-induction (Imax) and the EC1.5 value (concentration in μM for induction above the threshold) were calculated. Chemicals are rated as positive (i.e. likely skin-sensitizers) in the assay if the following three criteria are fulfilled (i) The EC1.5 value is below 1000 μM in all three repetitions or in at least 2 repetitions, (ii) at the lowest concentration with a gene induction above 1.5 fold (i.e. at the EC 1.5 determining value), the cellular viability is above 70% and (iii) there is an apparent overall dose-response for luciferase induction, which is similar between the repetitions.

KeratinoSens™ cell line = experiment: Cytotoxicity determination using an MTT assay in the KeratinoSens assay; format: cell-based; settings: 48 h, oxime: no significant cytotoxicity up to the value, Isoeugenol: cytotoxic above the value
Description: The KeratinoSens™ cell line contains a stable insertion of a Luciferase gene under the control of the ARE-element of the gene AKR1C2. The optimization of this cell line and the standard method to test chemicals has been described in detail in Emter et. al. 2010 (Emter R., Ellis G., Natsch A., 2010 “Performance of a novel keratinocyte-based reporter cell line to screen skin sensitizers in vitro. Toxicol Appl Pharmacol 245, 281-290). Cells were grown for 24 h in 96-well plates. The medium was then replaced with medium containing the test chemical and the solvent Dimethylsulfoxide (DMSO) at a final level of 1%. Each compound was tested at 12 binary dilutions in the range from 0.98 to 2000 μM. In each repetition, three parallel replicate plates were run with this same set-up and a fourth parallel plate was prepared for cytotoxicity determination using an MTT assay. Cells were incubated for 48 h with the test agents, and then luciferase activity and cytotoxicity were determined. […] For each chemical in each repetition and at each concentration, the gene induction compared to DMSO controls and the wells with statistically significant induction over the threshold of 1.5 (i.e. 50% enhanced gene activity) were determined. Furthermore the maximal fold-induction (Imax) and the EC1.5 value (concentration in μM for induction above the threshold) were calculated. […]

[5] = Colour stability in bar soap; format: physicochemical; settings: tallow toilet soap, 2% wt/wt of a 10% wt/wt solution in DPG, 1 month at 45° C.
Description: The extruded 24×8 mm soap string was cut into 8 cm pieces, which were placed in a thermostated oven for 1 month at 45° C. A control sample containing no fragrance was added to the stability test series.

SMILES: CC/C=C\CC/C=C/C=O [(2E,6Z)-nona-2,6-dienal]
- perception threshold [1]: 0.06 ng/L

SMILES: CO/N=C/CC(C)c1cccc(C(C)C)c1 (centres unmarked) [E)-3-(3-isopropylphenyl)butanal O-methyl oxime]
- perception threshold [1]: 22.4 ng/L

- Colour of ethanol solution after 1 month [2]: yellow
- Colour of ethanol solution after 1 month ([2]; listed as vanillin): unacceptable yellow colour
- colour of consumer base upon visual inspection [3]: discoloured
SMILES: COc1cc(C=O)ccc1O [Vanillin]

- colour of consumer base upon visual inspection [3]: discoloured
SMILES: CC=Cc1ccc(O)c(OC)c1 [Isoeugenol]
- luciferase gene induction relative to the 1.5-fold threshold [4]: clearly induces the gene already in the lower micromolar range
- skin sensitization rating by the KeratinoSens assay [4]: sensitizing
- concentration above which cytotoxic (cell viability) (KeratinoSens™ cell line): above 500 micromolar

SMILES: CC/C=C\CC/C=C/C=N/OC [(1E,2E,6Z)-nona-2,6-dienal O-methyl oxime]
- perception threshold [1]: 2.94 ng/L

SMILES: CC(C)c1cccc(C(C)CC=O)c1 (centres unmarked) [3-(3-isopropylphenyl)butanal]
- perception threshold [1]: 0.07 ng/L

SMILES: CCOc1cc(C=O)ccc1O [Ethyl Vanillin]
- Colour of ethanol solution after 1 month [2]: yellow
- Colour of ethanol solution after 1 month ([2]; listed as ethyl vanillin): unacceptable yellow colour
- colour of soap after one month [5]: chocolate brown

- Colour of ethanol solution after 1 month [2]: colourless
- colour of soap after one month [5]: remained as control
SMILES: CCOc1cc(C=NOC)ccc1O [Cpd I (R1 = Et, R2 = Me), 3-ethoxy-4-hydroxybenzaldehyde O-methyl oxime]
- Colour of ethanol solution after 1 month ([2]; listed as compound I): would have passed the requirements for colourless fine fragrance
- luciferase gene induction relative to the 1.5-fold threshold [4]: did not induce luciferase activity above the 1.5-fold threshold
- skin sensitization rating by the KeratinoSens assay [4]: non-sensitizing
- concentration above which cytotoxic (cell viability) (KeratinoSens™ cell line): > 1000 µM
